Laboratory results taken from PubChem BioAssay AID463204 (Broad Institute, 2010).
Calls of active or inactive are those of the source.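 The calls were made as follows: active = AC50 no more than ten times the top concentration tested, that is within one log above it; inconclusive = flat curve fit with activity between 30% and 70%, or invalid poor fit; inactive = AC50 beyond ten times the top tested dose.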

Tested on: S. cerevisiae Mot1-301 ts growth rescue, BacTiter-Glo ATP luminescence
Assay: growth rescue of Mot1-301 ts yeast, confirmation, SUMOylation pathway inhibitor project, whole organism, S. cerevisiae, Mot1-301 ts mutant, luminescence, dose retest (AID 463204);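 also: growth at restrictive 38.5 degrees C of Mot1-301 OY566 strain; actives raise luminescence by restoring growth of the ts mutant at high temperature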

Row | Structure (SMILES) | AC50
1 | CC(NC(=O)C12CC3CC(CC(O)(C3)C1)C2)c1ccccc1 (stereo unspecified) | > 42 µM (inactive)
2 | O=C1CN(C(=O)COC(=O)COc2ccc3c(c2)CCC3)c2ccccc2N1 | > 42 µM (inactive)
3 | O=C(c1cc(F)ccc1F)C1CCCN(C(=O)c2ccc3nccnc3c2)C1 (stereo unspecified) | > 42 µM (inactive)
4 | COc1ccc2[nH]c(C(=O)N/N=C/c3ccccc3OC)cc2c1 | > 42 µM (inactive)
5 | Cc1cc(C)cc(C(=O)NC(CC(N)=O)c2ccc(N3CCC(N4CCCCC4)CC3)c([N+](=O)[O-])c2)c1 (stereo unspecified) | > 42 µM (inactive)
6 | Cc1ccc(NC(=O)Cn2nnc(C(=O)NCc3ccc4c(c3)OCO4)c2N)cc1 | > 42 µM (inactive)
7 | CCCCC(=O)N/N=C(\C)CC(=O)Nc1cc(Cl)ccc1OC | > 42 µM (inactive)
8 | CC(C)Cc1cc(CN2CCC(CO)(Cc3ccccc3)CC2)[nH]n1 | > 42 µM (inactive)
9 | CCOC(=O)c1ccc(NC(=O)c2nc[nH]c2C(=O)N2CCc3ccccc3C2)cc1 | > 42 µM (inactive)
10 | CCN(CC)c1nc2c(c(=O)[nH]c(=O)n2C)n1CCOc1ccccc1 | > 42 µM (inactive)
11 | Cc1ccc(C(C(=O)Nc2ccc3c(c2)OCO3)N(C)C(=O)/C=C\c2ccc3c(c2)OCO3)cc1 (stereo unspecified) | > 42 µM (inactive)
12 | CS(=O)(=O)N1CCCC(C(=O)NCc2ccco2)C1 (stereo unspecified) | > 42 µM (inactive)
13 | CCNC(=O)COc1ccc(S(=O)(=O)Nc2ccccc2)cc1 | > 21 µM (inactive)
14 | CC(C)C[C@@H](CO)N1CCN(Cc2cccnc2)CCC1=O | > 42 µM (inactive)
15 | Cc1ccc(NC2c3ncccc3C(=O)N2C2CCCCC2)cc1C (stereo unspecified) | 32.5 µM
16 | CC1(C)CCC(=O)N2CC[C@H]3C[C@H](OC(=O)Nc4ccc(Br)cc4)C[C@@H]1[C@H]32 | > 42 µM (inactive)
17 | COc1ccc2c(c1)[C@H]1[C@H](CO2)[C@H](c2ccccc2)[C@]2(C)C(=O)Nc3cc(C)ccc3C(=O)N12 | 5.3 µM
18 | CCCCOc1ccc(C(O)C(CN2CCOCC2)c2ccccc2)cc1 (stereo unspecified) | > 42 µM (inactive)
19 | O=C(N/N=C/c1ccccc1)c1[nH]c2ccc(Br)cc2c1-c1ccccc1 | > 42 µM (inactive)
20 | CC1CCN(C(=O)c2[nH]cnc2C(=O)NCC(=O)OCc2ccccc2)CC1 | > 42 µM (inactive)
21 | O=c1[nH]c(CN2CCN(CCO)CC2)nc2ccccc12 | > 42 µM (inactive)
22 | Cc1ccc(-c2nc3c(=O)n(-c4ccccc4)c4c(c(=O)n(C)c(=O)n4C)c3o2)cc1 | > 42 µM (inactive)
23 | CC1(C)CC(=O)C(C(=O)c2ccccc2)C(=O)C1Cl (stereo unspecified) | > 42 µM (inactive)
24 | COc1ccc(NC(=O)CC(C)C)c(OC)c1 | > 42 µM (inactive)

Row | Structure (SMILES) | AC50
25 | CCn1c(CSCc2ccc(F)cc2)nnc1SCC(=O)NCc1ccccc1 | > 42 µM (inactive)
26 | COC(=O)[C@@H]1[C@@H](C(=O)OC)C2(c3ccccc3-c3ccccc32)N(c2ccc(Cl)cc2)N1C#N | 1.72 µM
27 | COC(=O)Nc1ccc(S(=O)(=O)N2CCCC(C(=O)NC3CCS(=O)(=O)C3)C2)cc1 (stereo unspecified) | > 42 µM (inactive)
28 | CN(c1ccccc1)S(=O)(=O)c1ccc(C(=O)NCC2CCCO2)cc1 (stereo unspecified) | > 21 µM (inactive)
29 | Cc1cc(C)c2cc(C)c3nnc(SCC(=O)NCc4ccc5c(c4)OCO5)n3c2c1 | > 42 µM (inactive)
30 | COc1ccc(C(=O)O/N=C(\N)c2ccccc2)cc1OC | > 42 µM (inactive)
31 | CCCNC(=O)c1cc2c(C(F)(F)F)nn(C)c2s1 | > 42 µM (inactive)
32 | Nc1cccc2c1C(=O)N(c1ccccc1)C2=O | > 42 µM (inactive)
33 | O=C(CCc1ccccc1)N1CCN(c2ccccc2F)CC1 | > 42 µM (inactive)
34 | COc1ccc(Oc2c(C)oc3cc(OC(=O)N(C)C)ccc3c2=O)cc1 | > 42 µM (inactive)
35 | Cc1cc(NC(=O)CC2CCCC2)ccc1Br | > 42 µM (inactive)
36 | CCOc1ccc(Cl)cc1CNc1nnnn1CC | > 42 µM (inactive)
37 | CC(C)(C)NC(=O)CN(C(=O)CCC(=O)Nc1nccs1)c1ccc2c(c1)OCCO2 | > 42 µM (inactive)
38 | COc1ccc(NS(=O)(=O)c2cccc(C(=O)NCCCn3ccnc3)c2)cc1 | > 21 µM (inactive)
39 | CC(=O)N/C(=C\c1ccccc1)C(=O)OCC(=O)c1ccccc1 | > 42 µM (inactive)
40 | Cc1cccc(CS(=O)(=O)Cc2ccc(C(=O)NCC3CCCO3)o2)c1 (stereo unspecified) | > 42 µM (inactive)
41 | CC(C)c1cc(N2CCOCC2)n2ncc(-c3ccccc3)c2n1 | > 42 µM (inactive)
42 | CCn1c(SCC(=O)Nc2nc(-c3ccccc3)cs2)nnc1-c1ccccc1 | > 42 µM (inactive)
43 | Cc1cc(C(F)(F)F)nc(SCC(=O)Nc2cc(C)on2)n1 | > 42 µM (inactive)
44 | NC(=O)C1CCCN(C(=S)Nc2cccc3ccccc23)C1 (stereo unspecified) | > 42 µM (inactive)
45 | O=C(Nc1nccs1)C1CCN(S(=O)(=O)c2ccc(Cl)c(C(F)(F)F)c2)CC1 | > 42 µM (inactive)
46 | COc1ccc(-c2csc(NC(=O)C3CSC4(C)CCC(=O)N34)n2)cc1 (stereo unspecified) | > 42 µM (inactive)
47 | COCc1nnc(NC(=O)CC(C)C)s1 | > 42 µM (inactive)
48 | COc1ccc(CN2CC(=O)N(c3ccccc3C)C2=S)cc1OC | > 42 µM (inactive)

Row | Structure (SMILES) | AC50
49 | CCc1ccc(S(=O)(=O)NCc2cccnc2)cc1 | > 42 µM (inactive)
50 | C=CCn1c(CCC)nc2ccccc21 | > 42 µM (inactive)
51 | CCc1ccc(-n2c(Cc3ccccc3)n[nH]c2=S)cc1 | > 42 µM (inactive)
52 | O=C(COC(=O)CSc1ccc([N+](=O)[O-])cc1)NC1CCCCCCC1 | > 42 µM (inactive)
53 | C=CCn1cc(C(C)=O)c(=O)[nH]c1=O | > 42 µM (inactive)
54 | COc1ccc(-n2nc(C(=O)NCC(=O)N3CCCC3)c3ccccc3c2=O)c(OC)c1 | > 42 µM (inactive)
55 | Cc1cc(C)c(S(=O)(=O)c2cccc(C)c2C)c(=O)[nH]1 | > 42 µM (inactive)
56 | Cn1c(-c2sc3cc(C(F)(F)F)cnc3c2-c2cccs2)n[nH]c1=S | > 42 µM (inactive)
57 | COc1ccc(-c2csc(NC(=O)CCS(=O)(=O)c3ccccc3)n2)c(OC)c1 | > 42 µM (inactive)
58 | Cc1ccccc1CSc1n[nH]c(NS(=O)(=O)c2ccccc2)n1 | > 21 µM (inactive)
59 | Cc1cc(C)c(NC(=O)CCN2CCN(Cc3ccccc3)CC2)c(C)c1 | > 42 µM (inactive)
60 | CCCc1nc(NCc2ccccc2)c(C#N)c2c1CCCC2 | > 42 µM (inactive)
61 | Cc1ccc(C(C(=O)NCC2CCCO2)N(Cc2ccccc2F)C(=O)Cn2nnc(-c3cccs3)n2)cc1 (stereo unspecified) | > 42 µM (inactive)
62 | COc1ccc(/C=C(\C#N)C(=O)NCCCn2ccnc2)cc1 | > 42 µM (inactive)
63 | CCOc1ccc(CCN2CN(C3CCCCC3)CNC2=S)cc1OCC | > 42 µM (inactive)
64 | O=c1/c(=C/c2ccco2)sc2nc(-c3ccccc3Br)nn12 | 5.74 µM
65 | O=C(Cc1cccs1)Nc1nnc(-c2ccncc2)s1 | > 42 µM (inactive)
66 | Cc1ccc(S(=O)(=O)N[C@@H](Cc2ccccc2)C(=O)CCl)cc1 | 1.47 µM
67 | CCc1ccccc1NC(=S)NNC(=O)c1ccccc1Cl | > 42 µM (inactive)
68 | FC(F)(F)c1nc2ccccc2n2c(-c3ccc(Cl)cc3Cl)nnc12 | > 42 µM (inactive)
69 | CCNC(=O)NC(C(=O)OC)C12CC3CC(CC(C3)C1)C2 (stereo unspecified) | > 42 µM (inactive)
70 | Cc1cc(NC(=O)CSc2ncn(-c3ccccc3)n2)no1 | > 42 µM (inactive)
71 | CC(=O)Nc1ccc(S(=O)(=O)Nc2ccc3c(c2)C(=O)OC3)cc1 | > 42 µM (inactive)
